Values quoted from earlier work, collected in paper PMC3433420 (PLoS ONE, 2012).
Like-named read-outs stand apart in the source and are kept apart here.

Molecular target: SH2 and PTB domains
Details: cited from earlier work
Excerpt: Supplement pone.0044471.s022.xlsx, sheet "Most recent PM interactions" | column: Kd || Supplement pone.0044471.s022.xlsx, sheet "All original PM interactions" | column: Kd

[1] = protein ABL2, ref Jones et al. 2006 / Kaushansky et al. Mol Biosys 2008 / Kaushansky et al. Chem and Biol 2008
[2] = protein SHB, ref Jones et al. 2006 / Kaushansky et al. Mol Biosys 2008 / Kaushansky et al. Chem and Biol 2008

Substance: DADEpYLIPQQGFd [ErbB1 pY1016, N-terminally rhodamine-labeled 13-mer phosphopeptide]
- Kd [1]: 280 nM
- Kd (protein BLK, ref Jones et al. 2006 / Kaushansky et al. Mol Biosys 2008 / Kaushansky et al. Chem and Biol 2008): 660 nM
- Kd (protein CRK, ref Jones et al. 2006 / Kaushansky et al. Mol Biosys 2008 / Kaushansky et al. Chem and Biol 2008): 470 nM
- Kd (protein CRKL, ref Jones et al. 2006 / Kaushansky et al. Mol Biosys 2008 / Kaushansky et al. Chem and Biol 2008): 1000 nM
- Kd (protein NCK1, ref Jones et al. 2006 / Kaushansky et al. Mol Biosys 2008 / Kaushansky et al. Chem and Biol 2008): 1000 nM
- Kd (protein NCK2, ref Jones et al. 2006 / Kaushansky et al. Mol Biosys 2008 / Kaushansky et al. Chem and Biol 2008): 2000 nM
- Kd (protein PIK3R1-C, ref Jones et al. 2006 / Kaushansky et al. Mol Biosys 2008 / Kaushansky et al. Chem and Biol 2008): 870 nM
- Kd (protein PIK3R1-N, ref Jones et al. 2006 / Kaushansky et al. Mol Biosys 2008 / Kaushansky et al. Chem and Biol 2008): 650 nM
- Kd (protein PIK3R1-NC, ref Jones et al. 2006 / Kaushansky et al. Mol Biosys 2008 / Kaushansky et al. Chem and Biol 2008): 300 nM
- Kd (protein PIK3R2-N, ref Jones et al. 2006 / Kaushansky et al. Mol Biosys 2008 / Kaushansky et al. Chem and Biol 2008): 430 nM
- Kd (protein PIK3R2-NC, ref Jones et al. 2006 / Kaushansky et al. Mol Biosys 2008 / Kaushansky et al. Chem and Biol 2008): 350 nM
- Kd (protein PIK3R3-C, ref Jones et al. 2006 / Kaushansky et al. Mol Biosys 2008 / Kaushansky et al. Chem and Biol 2008): 190 nM
- Kd (protein PIK3R3-N, ref Jones et al. 2006 / Kaushansky et al. Mol Biosys 2008 / Kaushansky et al. Chem and Biol 2008): 470 nM
- Kd (protein PIK3R3-NC, ref Jones et al. 2006 / Kaushansky et al. Mol Biosys 2008 / Kaushansky et al. Chem and Biol 2008): 200 nM
- Kd (protein PLCG1-C, ref Jones et al. 2006 / Kaushansky et al. Mol Biosys 2008 / Kaushansky et al. Chem and Biol 2008): 2000 nM
- Kd (protein PLCG1-NC, ref Jones et al. 2006 / Kaushansky et al. Mol Biosys 2008 / Kaushansky et al. Chem and Biol 2008): 790 nM
- Kd (protein PLCG2-NC, ref Jones et al. 2006 / Kaushansky et al. Mol Biosys 2008 / Kaushansky et al. Chem and Biol 2008): 2000 nM
- Kd (protein PTPN11-N, ref Jones et al. 2006 / Kaushansky et al. Mol Biosys 2008 / Kaushansky et al. Chem and Biol 2008): 380 nM
- Kd (protein RASA1-N, ref Jones et al. 2006 / Kaushansky et al. Mol Biosys 2008 / Kaushansky et al. Chem and Biol 2008): 770 nM
- Kd (protein RASA1-NC, ref Jones et al. 2006 / Kaushansky et al. Mol Biosys 2008 / Kaushansky et al. Chem and Biol 2008): 1420 nM
- Kd (protein SH2D3A, ref Jones et al. 2006 / Kaushansky et al. Mol Biosys 2008 / Kaushansky et al. Chem and Biol 2008): 2000 nM
- Kd (protein SH2D3C, ref Jones et al. 2006 / Kaushansky et al. Mol Biosys 2008 / Kaushansky et al. Chem and Biol 2008): 2000 nM
- Kd [2]: 1990 nM
- Kd (protein SHC1-PTB, ref Jones et al. 2006 / Kaushansky et al. Mol Biosys 2008 / Kaushansky et al. Chem and Biol 2008): 630 nM
- Kd (protein SHC2-PTB, ref Jones et al. 2006 / Kaushansky et al. Mol Biosys 2008 / Kaushansky et al. Chem and Biol 2008): 660 nM
- Kd (protein SHC3, ref Jones et al. 2006 / Kaushansky et al. Mol Biosys 2008 / Kaushansky et al. Chem and Biol 2008): 220 nM
- Kd (protein SLA, ref Jones et al. 2006 / Kaushansky et al. Mol Biosys 2008 / Kaushansky et al. Chem and Biol 2008): 2000 nM
- Kd (protein SYK-C, ref Jones et al. 2006 / Kaushansky et al. Mol Biosys 2008 / Kaushansky et al. Chem and Biol 2008): 930 nM
- Kd (protein SYK-NC, ref Jones et al. 2006 / Kaushansky et al. Mol Biosys 2008 / Kaushansky et al. Chem and Biol 2008): 530 nM
- Kd (protein TENC1, ref Jones et al. 2006 / Kaushansky et al. Mol Biosys 2008 / Kaushansky et al. Chem and Biol 2008): 2000 nM
- Kd (protein TNS4, ref Jones et al. 2006 / Kaushansky et al. Mol Biosys 2008 / Kaushansky et al. Chem and Biol 2008): 920 nM
- Kd (protein VAV1, ref Jones et al. 2006 / Kaushansky et al. Mol Biosys 2008 / Kaushansky et al. Chem and Biol 2008): 1050 nM
- Kd (protein VAV2, ref Jones et al. 2006 / Kaushansky et al. Mol Biosys 2008 / Kaushansky et al. Chem and Biol 2008): 2000 nM
- Kd (protein VAV3, ref Jones et al. 2006 / Kaushansky et al. Mol Biosys 2008 / Kaushansky et al. Chem and Biol 2008): 2000 nM

Substance: FLQRpYSSDPTGAd [ErbB1 pY1069, N-terminally rhodamine-labeled 13-mer phosphopeptide]
- Kd [1]: 2000 nM
- Kd [2]: 860 nM
- Kd (protein YES1, ref Jones et al. 2006 / Kaushansky et al. Mol Biosys 2008 / Kaushansky et al. Chem and Biol 2008): 300 nM

Substance: DAEEpYLVPQQGFd [ErbB2 pY1023, N-terminally rhodamine-labeled 13-mer phosphopeptide]
- Kd (protein ABL2, ref Jones et al. 2006 / Kaushansky et al. Chem and Biol 2008): 2000 nM
- Kd (protein BLK, ref Jones et al. 2006 / Kaushansky et al. Chem and Biol 2008): 2000 nM
- Kd (protein CRK, ref Jones et al. 2006 / Kaushansky et al. Chem and Biol 2008): 2000 nM
- Kd (protein CRKL, ref Jones et al. 2006 / Kaushansky et al. Chem and Biol 2008): 2000 nM
- Kd (protein DAPP1, ref Jones et al. 2006 / Kaushansky et al. Chem and Biol 2008): 2000 nM
- Kd (protein FGR, ref Jones et al. 2006 / Kaushansky et al. Chem and Biol 2008): 2000 nM
- Kd (protein ITK, ref Jones et al. 2006 / Kaushansky et al. Chem and Biol 2008): 2000 nM
- Kd (protein LYN, ref Jones et al. 2006 / Kaushansky et al. Chem and Biol 2008): 2000 nM
- Kd (protein NCK2, ref Jones et al. 2006 / Kaushansky et al. Chem and Biol 2008): 2000 nM
- Kd (protein PIK3R1-C, ref Jones et al. 2006 / Kaushansky et al. Chem and Biol 2008): 2000 nM
- Kd (protein PIK3R1-NC, ref Jones et al. 2006 / Kaushansky et al. Chem and Biol 2008): 1640 nM
- Kd (protein PIK3R2-N, ref Jones et al. 2006 / Kaushansky et al. Chem and Biol 2008): 1950 nM
- Kd (protein PIK3R2-NC, ref Jones et al. 2006 / Kaushansky et al. Chem and Biol 2008): 2000 nM
- Kd (protein PIK3R3-N, ref Jones et al. 2006 / Kaushansky et al. Chem and Biol 2008): 1930 nM
- Kd (protein PIK3R3-NC, ref Jones et al. 2006 / Kaushansky et al. Chem and Biol 2008): 530 nM
- Kd (protein PLCG1-C, ref Jones et al. 2006 / Kaushansky et al. Chem and Biol 2008): 1460 nM
- Kd (protein PLCG1-NC, ref Jones et al. 2006 / Kaushansky et al. Chem and Biol 2008): 2000 nM
- Kd (protein PTPN6-C, ref Jones et al. 2006 / Kaushansky et al. Chem and Biol 2008): 2000 nM
- Kd (protein RASA1-N, ref Jones et al. 2006 / Kaushansky et al. Chem and Biol 2008): 2000 nM
- Kd (protein RASA1-NC, ref Jones et al. 2006 / Kaushansky et al. Chem and Biol 2008): 2000 nM
- Kd (protein SH2B2, ref Jones et al. 2006 / Kaushansky et al. Chem and Biol 2008): 2000 nM
- Kd (protein SH2D3A, ref Jones et al. 2006 / Kaushansky et al. Chem and Biol 2008): 2000 nM
- Kd (protein SHC1-PTB, ref Jones et al. 2006 / Kaushansky et al. Chem and Biol 2008): 2000 nM
- Kd (protein SHC2-PTB, ref Jones et al. 2006 / Kaushansky et al. Chem and Biol 2008): 2000 nM
- Kd (protein SHC3, ref Jones et al. 2006 / Kaushansky et al. Chem and Biol 2008): 2000 nM
- Kd (protein SLA2, ref Jones et al. 2006 / Kaushansky et al. Chem and Biol 2008): 2000 nM
- Kd (protein SLA, ref Jones et al. 2006 / Kaushansky et al. Chem and Biol 2008): 2000 nM
- Kd (protein SOCS1, ref Jones et al. 2006 / Kaushansky et al. Chem and Biol 2008): 2000 nM
- Kd (protein SOCS2, ref Jones et al. 2006 / Kaushansky et al. Chem and Biol 2008): 2000 nM
- Kd (protein SRC, ref Jones et al. 2006 / Kaushansky et al. Chem and Biol 2008): 760 nM
- Kd (protein SUPT6H, ref Jones et al. 2006 / Kaushansky et al. Chem and Biol 2008): 910 nM
- Kd (protein SYK-NC, ref Jones et al. 2006 / Kaushansky et al. Chem and Biol 2008): 370 nM
- Kd (protein TEC, ref Jones et al. 2006 / Kaushansky et al. Chem and Biol 2008): 2000 nM
- Kd (protein TENC1, ref Jones et al. 2006 / Kaushansky et al. Chem and Biol 2008): 2000 nM
- Kd (protein VAV1, ref Jones et al. 2006 / Kaushansky et al. Chem and Biol 2008): 2000 nM
- Kd (protein VAV2, ref Jones et al. 2006 / Kaushansky et al. Chem and Biol 2008): 2000 nM
- Kd (protein VAV3, ref Jones et al. 2006 / Kaushansky et al. Chem and Biol 2008): 2000 nM
- Kd (protein YES1, ref Jones et al. 2006 / Kaushansky et al. Chem and Biol 2008): 1170 nM
